Source: EP4603105A1, “PHARMACEUTICAL COMPOSITION CONTAINING CYCLIC COMPOUND HAVING SELECTIVE KRAS INHIBITORY EFFECT AGAINST HRAS AND NRAS” (CHUGAI SEIYAKU KABUSHIKI KAISHA, priority 2022, dated 2024)
Where a SMILES comes first, the peptide text is derived from it. Bridges are numbered along the chain shown (N, C = ends). [ ]: non-standard residue; d: D form. The star is where a group is joined. hPhe(3-Cl-4-CF3) = N[C@@H](CCc1ccc(C(F)(F)F)c(Cl)c1)C(=O)O; NPrPhe(4-CF3) = CCCN[C@@H](Cc1ccc(C(F)(F)F)cc1)C(=O)O; NMeGly(cPent) = CN[C@H](C(=O)O)C1CCCC1; Hyp = O=C(O)[C@@H]1C[C@@H](O)CN1; NMeD = CN[C@@H](CC(=O)O)C(=O)O; NMeL = CN[C@@H](CC(C)C)C(=O)O; Morpholide = C1CN(*)CCO1; Ac5c = NC1(C(=O)O)CCCC1; Ac3c = NC1(C(=O)O)CC1; NEtG = CCNCC(=O)O; Sar = CNCC(=O)O

Assays:
HRAS wild-type protein = HRAS wild-type protein (Homo sapiens, UniProt P01112); test: Binding to HRAS by surface plasmon resonance (SPR), KD and KD ratio to KRAS
HRAS wild-type protein, sequence (P01112 whole entry): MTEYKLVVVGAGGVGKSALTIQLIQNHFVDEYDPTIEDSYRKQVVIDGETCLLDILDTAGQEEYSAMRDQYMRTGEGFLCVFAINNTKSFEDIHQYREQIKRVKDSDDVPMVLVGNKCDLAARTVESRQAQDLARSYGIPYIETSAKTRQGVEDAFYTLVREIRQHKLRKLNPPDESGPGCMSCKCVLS
Method in brief: (§1)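 Single-cycle kinetics on GDP-loaded biotin-Avi RAS captured to ~100–300 RU; 75 s ascending injections, 100 µL/min, 30°C. HBS pH 7.4 + 10 mM MgCl2/10 µM GDP/4% DMSO. 1:1 fit, KD.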

[1] = system: human lung cancer strain NCI-H441; assay type: cell-based
Method in brief: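 Proliferation was scored by […] measured after the reagent was added to cultures kept at 37°C in 5% carbon dioxide.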

[2] = target: GDP-bound NRAS wild-type protein (Homo sapiens, UniProt P01111); test: Binding to NRAS by surface plasmon resonance (SPR), KD and KD ratio to KRAS
GDP-bound NRAS wild-type protein, sequence (P01111 whole entry): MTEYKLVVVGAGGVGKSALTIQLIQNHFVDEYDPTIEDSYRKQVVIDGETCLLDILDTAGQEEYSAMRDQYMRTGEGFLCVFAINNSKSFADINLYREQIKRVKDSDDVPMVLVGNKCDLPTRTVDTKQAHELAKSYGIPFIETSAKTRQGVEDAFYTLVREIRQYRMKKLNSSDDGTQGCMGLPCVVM
Method in brief: as §1

[3] = ratio of KD for HRAS wild-type protein to KD for KRAS
[4] = ratio of KD for GDP-bound NRAS wild-type protein to KD for KRAS
[5] = ratio of the KD value with respect to HRAS wild-type protein to the KD value with respect to KRAS
[6] = ratio of the KD value with respect to GDP-bound NRAS wild-type protein to the KD value with respect to KRAS

SMILES: CCC[C@H]1C(=O)N[C@@H]([C@@H](C)CC)C(=O)N(C)CC(=O)N(C)[C@H]2C/C=C\CCN(C2=O)[C@@H](Cc2ccc(C(F)(F)F)cc2)C(=O)N(C)CC(=O)N[C@@H](CCc2ccc(CC)c(Cl)c2)C(=O)N2C[C@H](OCC)C[C@H]2C(=O)NC2(CC(C)(C)C2)C(=O)N(C)[C@@H](C(CC)CC)C(=O)N(C)[C@H](C(=O)N(C)C)CC(=O)N1C [PP2777]
- HRAS /KRAS (HRAS wild-type protein; [3]): A (a compound having 10 or more and less than 20 is denoted as A)
- IC50 [1]: 111 nM
- NRAS /KRAS [2, 4]: AA (a compound having 20 or more is denoted as AA)

SMILES: CCCOC[C@H]1C(=O)N[C@@H]([C@@H](C)CC)C(=O)N(C2CC2)CC(=O)N(C)[C@H]2C/C=C\CCN(C2=O)[C@@H](Cc2ccc(C)cc2)C(=O)N(C)CC(=O)N[C@@H](CCc2ccc(C(F)(F)F)c(OC)c2)C(=O)N2C[C@H](OCC)C[C@H]2C(=O)N(C)C2(CCC2)C(=O)N(C)[C@@H](C(CC)CC)C(=O)N(C)[C@H](C(=O)N(C)C)CC(=O)N1C [PP2327]
- HRAS /KRAS (HRAS wild-type protein; [5]): A (a compound having 10 or more and less than 20 is denoted as A)
- IC50 [1]: 9.9 nM
- NRAS /KRAS [2, 6]: A (a compound having 10 or more and less than 20 is denoted as A)

SMILES: CCCN1C(=O)CN(C)C(=O)CN(CC)C(=O)[C@H]([C@@H](C)CC)NC(=O)[C@H](CC(C)C)N(C)C(=O)C[C@@H](C(=O)N(C)C)N(C)C(=O)[C@H](C2CCCC2)N(C)C(=O)C2(CCCC2)NC(=O)[C@@H]2C[C@@H](OCC)CN2C(=O)[C@H](CCc2ccc(C(F)(F)F)c(Cl)c2)NC(=O)CN(C)C(=O)[C@@H]1Cc1ccc(C(F)(F)F)cc1 [PP0427] ([NMeL]I[NEtG][Sar][NPrPhe(4-CF3)][Sar][hPhe(3-Cl-4-CF3)][Hyp](Et)[Ac5c][NMeGly(cPent)][NMeD]-NMe2; lactam N-11)
- HRAS /KRAS (HRAS wild-type protein; [5]): C (A compound having a KD ratio of 0.1 or more and less than 3 is denoted as C)
- IC50 [1]: 2.2 nM
- NRAS /KRAS [2, 6]: B (a compound having 3 or more and less than 10 is denoted as B)

SMILES: C#CC[C@H]1C(=O)N[C@@H]([C@@H](C)CC)C(=O)N(C)CC(=O)N(C)[C@H]2CCCCCN(C2=O)[C@@H](Cc2ccc(C(F)(F)F)cc2)C(=O)N(C)CC(=O)N[C@@H](CCc2cc(F)c(C(F)(F)F)c(F)c2)C(=O)N2C[C@H](OCC)C[C@H]2C(=O)NC2(CCC2)C(=O)N(C)[C@@H](C2CCCC2)C(=O)N(C)[C@H](C(=O)N(C)C)CC(=O)N1C [PP0666]
- HRAS /KRAS (HRAS wild-type protein; [5]): B (a compound having 3 or more and less than 10 is denoted as B)
- IC50 [1]: 19.1 nM
- NRAS /KRAS [2, 6]: B (a compound having 3 or more and less than 10 is denoted as B)

SMILES: CCC[C@H]1C(=O)N[C@@H]([C@@H](C)CC)C(=O)N(C)CC(=O)N(C)[C@H]2C/C=C\CCN(C2=O)[C@@H](Cc2ccc(C(F)(F)F)cc2)C(=O)N(C)CC(=O)N[C@@H](CCc2cc(F)c(C(F)(F)F)c(F)c2)C(=O)N2C[C@H](OCC)C[C@H]2C(=O)NC2(CCC2)C(=O)N(C)[C@@H](C2CCCC2)C(=O)N(C)[C@H](C(=O)N(C)CC)CC(=O)N1C [PP1304]
- HRAS /KRAS (HRAS wild-type protein; ratio of KD with respect to HRAS wild-type protein to KD with respect to KRAS): A (a compound having 10 or more and less than 20 is denoted as A)
- IC50 [1]: 8.8 nM
- NRAS /KRAS ([2]; ratio of KD with respect to GDP-bound NRAS wild-type protein to KD with respect to KRAS): A (a compound having 10 or more and less than 20 is denoted as A)

SMILES: CCCN1C(=O)CN(C)C(=O)CN(C)C(=O)[C@H]([C@@H](C)CC)NC(=O)[C@H](CC(C)C)N(C)C(=O)C[C@@H](C(=O)N2CCOCC2)N(C)C(=O)[C@H](C2CCCC2)N(C)C(=O)C2(CC2)NC(=O)[C@@H]2CCCN2C(=O)[C@H](CCc2ccc(C(F)(F)F)c(Cl)c2)NC(=O)CN(C)C(=O)[C@@H]1Cc1ccc(C(F)(F)F)cc1 [PP0229] ([NMeL]I[Sar][Sar][NPrPhe(4-CF3)][Sar][hPhe(3-Cl-4-CF3)]P[Ac3c][NMeGly(cPent)][NMeD]-Morpholide; lactam N-11)
- HRAS /KRAS (HRAS wild-type protein; [3]): B (a compound having 3 or more and less than 10 is denoted as B)
- IC50 [1]: 24.7 nM
- NRAS /KRAS [2, 4]: B (a compound having 3 or more and less than 10 is denoted as B)
